# Measurements from publication PMC5218480 (PLoS ONE, 2017).
# System: MV-4-11 cells
# Test: Gene expression microarray analysis (Affymetrix PrimeView) and GSEA
# Assay type: cell-based, human
# Parameters: RFU PODN (11730768_x_at) / Fold change /veh PODN (11730768_x_at) / RFU LINC00158 (11744669_a_at) / Fold change /veh LINC00158 (11744669_a_at) / RFU DUSP10 (11751237_a_at) / Fold change /veh DUSP10 (11751237_a_at) / RFU ID3 (11757404_x_at) / Fold change /veh ID3 (11757404_x_at) / RFU PLEKHG5 (11737974_s_at) / Fold change /veh PLEKHG5 (11737974_s_at) / RFU LRRC4B (11730491_at) / Fold change /veh LRRC4B (11730491_at) / RFU GIMAP4 (11747438_a_at) / Fold change /veh GIMAP4 (11747438_a_at) / RFU KRT8 (11758183_x_at) / Fold change /veh KRT8 (11758183_x_at) / RFU CNN1 (11734310_a_at) / Fold change /veh CNN1 (11734310_a_at) / RFU VPS37D (11726825_at) / Fold change /veh VPS37D (11726825_at) / RFU C10orf10 (11716522_x_at) / Fold change /veh C10orf10 (11716522_x_at) / RFU KIR2DL2 /// KIR2DL4 /// KIR2DL5A /// KIR2DL5B /// KIR2DS1 /// KIR2DS2 /// KIR2DS3 /// KIR2DS4 /// KIR3DL3 /// KIR3DL3 /// KIR3DS1 (11738374_at) / Fold change /veh KIR2DL2 /// KIR2DL4 /// KIR2DL5A /// KIR2DL5B /// KIR2DS1 /// KIR2DS2 /// KIR2DS3 /// KIR2DS4 /// KIR3DL3 /// KIR3DL3 /// KIR3DS1 (11738374_at) / RFU C1QL1 (11718748_at) / Fold change /veh C1QL1 (11718748_at) / RFU TMPRSS4 (11747572_a_at) / Fold change /veh TMPRSS4 (11747572_a_at) / RFU HAMP (11756126_x_at) / Fold change /veh HAMP (11756126_x_at) / RFU RNFT2 (11725882_a_at) / Fold change /veh RNFT2 (11725882_a_at) / RFU NR4A2 (11747474_a_at) / Fold change /veh NR4A2 (11747474_a_at) / RFU ABCC12 (11746883_a_at) / Fold change /veh ABCC12 (11746883_a_at) / RFU TMEM136 (11760407_x_at) / Fold change /veh TMEM136 (11760407_x_at) / RFU CLDN22 /// WWC2 (11732394_at) / Fold change /veh CLDN22 /// WWC2 (11732394_at) / RFU HLA-DPB1 (11760878_x_at) / Fold change /veh HLA-DPB1 (11760878_x_at) / RFU SPINT1 (11716480_a_at) / Fold change /veh SPINT1 (11716480_a_at) / RFU GAP43 (11754022_s_at) / Fold change /veh GAP43 (11754022_s_at) / RFU A4GNT (11735810_at) / Fold change /veh A4GNT (11735810_at) / RFU PRB3 (11715151_x_at) / Fold change /veh PRB3 (11715151_x_at) / RFU TUBB4B (11761932_at) / Fold change /veh TUBB4B (11761932_at) / RFU CAPN14 (11732068_a_at) / Fold change /veh CAPN14 (11732068_a_at) / RFU TMCC2 (11721928_a_at) / Fold change /veh TMCC2 (11721928_a_at) / RFU IRGQ (11745062_a_at) / Fold change /veh IRGQ (11745062_a_at) / RFU FAM174B (11720279_a_at) / Fold change /veh FAM174B (11720279_a_at) / RFU TMPRSS4 (11748680_a_at) / Fold change /veh TMPRSS4 (11748680_a_at) / RFU FAM212B (11763350_a_at) / Fold change /veh FAM212B (11763350_a_at) / RFU PLEKHG5 (11743358_a_at) / Fold change /veh PLEKHG5 (11743358_a_at) / RFU ZSCAN30 (11745921_a_at) / Fold change /veh ZSCAN30 (11745921_a_at) / RFU CMKLR1 (11741424_a_at) / Fold change /veh CMKLR1 (11741424_a_at) / RFU LOC101060620 /// MAPK8IP1 (11723275_at) / Fold change /veh LOC101060620 /// MAPK8IP1 (11723275_at) / RFU SPTSSB (11747773_x_at) / Fold change /veh SPTSSB (11747773_x_at) / RFU PRSS12 (11739890_at) / Fold change /veh PRSS12 (11739890_at) / RFU BIN1 (11741810_x_at) / Fold change /veh BIN1 (11741810_x_at) / RFU WNT11 (11732464_a_at) / Fold change /veh WNT11 (11732464_a_at) / RFU C10orf10 (11716521_a_at) / Fold change /veh C10orf10 (11716521_a_at) / RFU C5orf56 (11738089_at) / Fold change /veh C5orf56 (11738089_at) / RFU CYB561 (11721691_x_at) / Fold change /veh CYB561 (11721691_x_at) / RFU ANKRD19P (11752326_a_at) / Fold change /veh ANKRD19P (11752326_a_at) / RFU OR2T12 /// OR2T33 /// OR2T8 (11738714_s_at) / Fold change /veh OR2T12 /// OR2T33 /// OR2T8 (11738714_s_at) / RFU VCAN (11748164_a_at) / Fold change /veh VCAN (11748164_a_at) / RFU JSRP1 (11732532_at) / Fold change /veh JSRP1 (11732532_at) / RFU KRTAP10-11 (11738290_x_at) / Fold change /veh KRTAP10-11 (11738290_x_at) / RFU MYO3A (11730013_a_at) / Fold change /veh MYO3A (11730013_a_at) / RFU EBF3 (11725865_a_at) / Fold change /veh EBF3 (11725865_a_at) / RFU CAMK2N1 (11719241_x_at) / Fold change /veh CAMK2N1 (11719241_x_at) / RFU C5orf56 (11738088_a_at) / Fold change /veh C5orf56 (11738088_a_at) / RFU OLFML3 (11715873_a_at) / Fold change /veh OLFML3 (11715873_a_at) / RFU LOC100653217 /// NTM (11731650_a_at) / Fold change /veh LOC100653217 /// NTM (11731650_a_at) / RFU MAPK11 (11762145_a_at) / Fold change /veh MAPK11 (11762145_a_at) / RFU FIZ1 (11724087_x_at) / Fold change /veh FIZ1 (11724087_x_at) / RFU OASL (11726364_x_at) / Fold change /veh OASL (11726364_x_at) / RFU SOX15 (11748057_x_at) / Fold change /veh SOX15 (11748057_x_at) / RFU CD79A (11719716_a_at) / Fold change /veh CD79A (11719716_a_at) / RFU HIST1H1D (11736915_at) / Fold change /veh HIST1H1D (11736915_at) / RFU CASKIN2 (11723855_a_at) / Fold change /veh CASKIN2 (11723855_a_at) / RFU LOC730098 (11760151_x_at) / Fold change /veh LOC730098 (11760151_x_at) / RFU OR4N2 (11742367_at) / Fold change /veh OR4N2 (11742367_at) / RFU PRRT2 (11749266_a_at) / Fold change /veh PRRT2 (11749266_a_at) / RFU SNX32 (11753110_a_at) / Fold change /veh SNX32 (11753110_a_at) / RFU CDHR5 (11726645_a_at) / Fold change /veh CDHR5 (11726645_a_at) / RFU RCAN1 (11760418_a_at) / Fold change /veh RCAN1 (11760418_a_at) / RFU FAM167A (11723789_a_at) / Fold change /veh FAM167A (11723789_a_at) / RFU FAM26E (11764081_at) / Fold change /veh FAM26E (11764081_at) / RFU ISYNA1 (11749810_s_at) / Fold change /veh ISYNA1 (11749810_s_at) / RFU ACY1 (11761880_at) / Fold change /veh ACY1 (11761880_at) / RFU 11764098_at / Fold change /veh 11764098_at / RFU SAMD14 (11745864_x_at) / Fold change /veh SAMD14 (11745864_x_at) / RFU NPB (11741838_a_at) / Fold change /veh NPB (11741838_a_at) / RFU TMPRSS6 (11731388_a_at) / Fold change /veh TMPRSS6 (11731388_a_at) / RFU KRTAP10-2 (11738614_at) / Fold change /veh KRTAP10-2 (11738614_at) / RFU ARHGAP8 /// PRR5-ARHGAP8 (11727945_x_at) / Fold change /veh ARHGAP8 /// PRR5-ARHGAP8 (11727945_x_at) / RFU KRTAP5-7 /// NADSYN1 (11734609_at) / Fold change /veh KRTAP5-7 /// NADSYN1 (11734609_at) / RFU RASL12 (11751679_a_at) / Fold change /veh RASL12 (11751679_a_at) / RFU CDKN2B (11736163_a_at) / Fold change /veh CDKN2B (11736163_a_at) / RFU PRF1 (11729649_at) / Fold change /veh PRF1 (11729649_at) / RFU, ZNF638 /// ZNF638-IT1 / Fold change vs veh, ZNF638 /// ZNF638-IT1 / RFU, PANK3 / Fold change vs veh, PANK3 / RFU, SH3YL1 / Fold change vs veh, SH3YL1 / RFU, ZEB2 / Fold change vs veh, ZEB2 / RFU, NRIP1 / Fold change vs veh, NRIP1 / RFU, PTTG1IP / Fold change vs veh, PTTG1IP / RFU, CAPN2 / Fold change vs veh, CAPN2 / RFU, MED14 / Fold change vs veh, MED14 / RFU, SNORA58 / Fold change vs veh, SNORA58 / RFU, C1orf63 / Fold change vs veh, C1orf63 / RFU, LRRFIP1 / Fold change vs veh, LRRFIP1 / RFU, NDUFAF7 / Fold change vs veh, NDUFAF7 / RFU, SLC12A2 / Fold change vs veh, SLC12A2 / RFU, IBTK / Fold change vs veh, IBTK / RFU, ESF1 / Fold change vs veh, ESF1 / Fold change vs veh, TMEM50B / RFU, TAOK1 / Fold change vs veh, TAOK1 / RFU, ACBD3 / Fold change vs veh, ACBD3 / RFU, TMA16 / Fold change vs veh, TMA16 / RFU, RWDD3 / Fold change vs veh, RWDD3 / RFU, BCAT1 / Fold change vs veh, BCAT1 / RFU, EDEM3 / Fold change vs veh, EDEM3 / RFU, TMEM33 / Fold change vs veh, TMEM33 / RFU, WDR75 / Fold change vs veh, WDR75 / RFU, AHCTF1 / Fold change vs veh, AHCTF1 / RFU, TFRC / Fold change vs veh, TFRC / RFU, ZDHHC17 / Fold change vs veh, ZDHHC17 / RFU, NOM1 / Fold change vs veh, NOM1 / RFU, ARL8B / Fold change vs veh, ARL8B / RFU, ZBTB11 / Fold change vs veh, ZBTB11 / RFU, TAMM41 / Fold change vs veh, TAMM41 / RFU, KIAA1704 /// LOC100996395 / Fold change vs veh, KIAA1704 /// LOC100996395 / RFU, ING1 / Fold change vs veh, ING1 / RFU, TRMT61B / Fold change vs veh, TRMT61B / RFU, FUBP3 / Fold change vs veh, FUBP3 / RFU, TP53 / Fold change vs veh, TP53 / RFU, TNKS2 / Fold change vs veh, TNKS2 / RFU, ZFP14 / Fold change vs veh, ZFP14 / RFU, ACTR2 / Fold change vs veh, ACTR2 / RFU, PPP3R1 / Fold change vs veh, PPP3R1 / RFU, PIK3R1 / Fold change vs veh, PIK3R1 / RFU, HNRNPA1 / Fold change vs veh, HNRNPA1 / RFU, RNF170 / Fold change vs veh, RNF170 / RFU, ZNF28 / Fold change vs veh, ZNF28 / RFU, RNGTT / Fold change vs veh, RNGTT / RFU, OGT / Fold change vs veh, OGT / RFU, BRD1 / Fold change vs veh, BRD1 / RFU, MARS / Fold change vs veh, MARS / RFU, ZNF655 / Fold change vs veh, ZNF655 / RFU, FAHD1 / Fold change vs veh, FAHD1 / RFU, BDP1 / Fold change vs veh, BDP1 / RFU, LRRCC1 / Fold change vs veh, LRRCC1 / RFU, ARID1A / Fold change vs veh, ARID1A / RFU, ZNF146 / Fold change vs veh, ZNF146 / RFU, ZNF330 / Fold change vs veh, ZNF330 / RFU, GPN3 / Fold change vs veh, GPN3 / RFU, C9orf123 / Fold change vs veh, C9orf123 / RFU, N4BP2L2 / Fold change vs veh, N4BP2L2 / RFU, ARFIP1 / Fold change vs veh, ARFIP1 / RFU, FAM179B / Fold change vs veh, FAM179B / RFU, BCL10 / Fold change vs veh, BCL10 / RFU, UHRF1BP1L / Fold change vs veh, UHRF1BP1L / RFU, BET1 / Fold change vs veh, BET1 / RFU, CNOT2 / Fold change vs veh, CNOT2 / RFU, ZNF268 / Fold change vs veh, ZNF268 / Fold change vs veh, ZNF507 / RFU, DGCR2 / Fold change vs veh, DGCR2 / RFU, WDSUB1 / Fold change vs veh, WDSUB1 / Fold change vs veh, HSP90B1 /// MIR3652 / RFU, ADSS / Fold change vs veh, ADSS / RFU, GK / Fold change vs veh, GK / RFU, ZNF148 / Fold change vs veh, ZNF148 / RFU, TAF9 / Fold change vs veh, TAF9 / RFU, SLC1A5 / Fold change vs veh, SLC1A5 / RFU, SLMO2 / Fold change vs veh, SLMO2 / RFU, ABCC4 / Fold change vs veh, ABCC4 / RFU, LOC101060439 /// RAP1B / Fold change vs veh, LOC101060439 /// RAP1B / RFU, RFX7 / Fold change vs veh, RFX7 / RFU, GTPBP10 / Fold change vs veh, GTPBP10 / RFU, CNEP1R1 / Fold change vs veh, CNEP1R1 / RFU, BIVM-ERCC5 /// ERCC5 / Fold change vs veh, BIVM-ERCC5 /// ERCC5 / RFU, ILF3 / Fold change vs veh, ILF3 / RFU 11762660_at / Fold change /veh 11762660_at / RFU VCAN (11757783_s_at) / Fold change /veh VCAN (11757783_s_at) / RFU DDX43 (11728927_at) / Fold change /veh DDX43 (11728927_at) / RFU KRT8 (11758188_x_at) / Fold change /veh KRT8 (11758188_x_at) / RFU NKD1 (11759106_at) / Fold change /veh NKD1 (11759106_at) / RFU SRD5A1 (11742802_a_at) / Fold change /veh SRD5A1 (11742802_a_at) / RFU TPSAB1 /// TPSB2 (11721975_s_at) / Fold change /veh TPSAB1 /// TPSB2 (11721975_s_at) / RFU GSTM3 (11746129_a_at) / Fold change /veh GSTM3 (11746129_a_at) / RFU IL23R (11737362_x_at) / Fold change /veh IL23R (11737362_x_at) / RFU TMEM51 (11727254_a_at) / Fold change /veh TMEM51 (11727254_a_at) / RFU PIWIL2 (11732686_x_at) / Fold change /veh PIWIL2 (11732686_x_at) / RFU ORM1 (11744905_x_at) / Fold change /veh ORM1 (11744905_x_at) / RFU CCDC152 (11743942_at) / Fold change /veh CCDC152 (11743942_at) / RFU ECM1 (11717891_a_at) / Fold change /veh ECM1 (11717891_a_at) / RFU IL23R (11748794_a_at) / Fold change /veh IL23R (11748794_a_at) / RFU TNFAIP8L3 (11732012_x_at) / Fold change /veh TNFAIP8L3 (11732012_x_at) / RFU MBOAT4 (11741988_at) / Fold change /veh MBOAT4 (11741988_at) / RFU 11764193_at / Fold change /veh 11764193_at / RFU TMEM53 (11763286_at) / Fold change /veh TMEM53 (11763286_at) / RFU MAGEB2 (11727129_at) / Fold change /veh MAGEB2 (11727129_at) / RFU TMEM200A (11744735_a_at) / Fold change /veh TMEM200A (11744735_a_at) / RFU CCDC152 (11751479_a_at) / Fold change /veh CCDC152 (11751479_a_at) / RFU FAM211A (11726209_a_at) / Fold change /veh FAM211A (11726209_a_at) / RFU RGS16 (11746705_a_at) / Fold change /veh RGS16 (11746705_a_at) / RFU VCAN (11755009_s_at) / Fold change /veh VCAN (11755009_s_at) / RFU RHOB (11743442_s_at) / Fold change /veh RHOB (11743442_s_at) / RFU RGS16 (11720943_a_at) / Fold change /veh RGS16 (11720943_a_at) / RFU RGS16 (11720944_at) / Fold change /veh RGS16 (11720944_at) / RFU, VPS4B / Fold change vs veh, VPS4B / RFU, CREB1 / Fold change vs veh, CREB1 / RFU, DNAJC13 / Fold change vs veh, DNAJC13 / RFU, GNAQ / Fold change vs veh, GNAQ / RFU, CDK5R1 / Fold change vs veh, CDK5R1 / RFU, ZRANB3 / Fold change vs veh, ZRANB3 / RFU, CUL4A / Fold change vs veh, CUL4A / RFU, CCNY / Fold change vs veh, CCNY / RFU, UFL1 / Fold change vs veh, UFL1 / RFU, COG3 / Fold change vs veh, COG3 / RFU, DIAPH2 / Fold change vs veh, DIAPH2 / RFU, SKA2 / Fold change vs veh, SKA2 / RFU, AFF3 / Fold change vs veh, AFF3 / RFU, LMF1 / Fold change vs veh, LMF1 / RFU, IPO11 / Fold change vs veh, IPO11 / RFU, DFFB / Fold change vs veh, DFFB / RFU, FOXP1 / Fold change vs veh, FOXP1 / RFU, CARD8 / Fold change vs veh, CARD8 / RFU, STRN3 / Fold change vs veh, STRN3 / RFU, ADK / Fold change vs veh, ADK / RFU, RASSF2 / Fold change vs veh, RASSF2 / RFU, WIPF1 / Fold change vs veh, WIPF1 / RFU, LARP1B / Fold change vs veh, LARP1B / RFU, RASA1 / Fold change vs veh, RASA1 / RFU, RB1 / Fold change vs veh, RB1 / RFU, PPFIA1 / Fold change vs veh, PPFIA1 / RFU, MAT2A / Fold change vs veh, MAT2A / RFU, CCT5 / Fold change vs veh, CCT5 / RFU, WDR92 / Fold change vs veh, WDR92 / RFU, CUX1 / Fold change vs veh, CUX1 / RFU, TTC7A / Fold change vs veh, TTC7A / RFU, TMEM135 / Fold change vs veh, TMEM135 / RFU, DEPTOR / Fold change vs veh, DEPTOR / RFU, CPM / Fold change vs veh, CPM / RFU, DNAJB6 / Fold change vs veh, DNAJB6 / RFU, CACNA2D3 / Fold change vs veh, CACNA2D3 / RFU, DTX4 / Fold change vs veh, DTX4 / RFU, TFCP2 / Fold change vs veh, TFCP2 / RFU, GMCL1 /// GMCL1P1 / Fold change vs veh, GMCL1 /// GMCL1P1 / RFU, AEBP2 / Fold change vs veh, AEBP2 / RFU, SNHG1 /// SNORD22 /// SNORD25 /// SNORD26 /// SNORD27 /// SNORD28 /// SNORD29 /// SNORD31 / Fold change vs veh, SNHG1 /// SNORD22 /// SNORD25 /// SNORD26 /// SNORD27 /// SNORD28 /// SNORD29 /// SNORD31 / Fold change (Aza/veh), C12orf56 (ProbeSet 11735607_a_at) / Fold change (ACY-1035/veh), C12orf56 (ProbeSet 11735607_a_at) / Fold change (Aza/veh), FGFR1OP (ProbeSet 11751329_s_at) / Fold change (ACY-1035/veh), FGFR1OP (ProbeSet 11751329_s_at) / Fold change (Aza/veh), VPS36 (ProbeSet 11739960_a_at) / Fold change (ACY-1035/veh), VPS36 (ProbeSet 11739960_a_at) / RFU SYPL1 (11715823_x_at) / Fold change /veh SYPL1 (11715823_x_at) / RFU IGFBP7 (11715501_s_at) / Fold change /veh IGFBP7 (11715501_s_at) / RFU REEP3 (11722064_at) / Fold change /veh REEP3 (11722064_at) / RFU IGLL1 (11728026_x_at) / Fold change /veh IGLL1 (11728026_x_at): dose or concentration left out as unconfirmed
# Details: ProbeSet 11749551_a_at; LIST B
smiles,measurement,value
Nc1ncn([C@@H]2O[C@H](CO)[C@@H](O)[C@H]2O)c(=O)n1 [azacitidine],"Fold change vs veh, RNGTT",1.02
